According to patent publication US12545639B2, “3-substituted phenylamidine compounds, preparation and use thereof” (PI INDUSTRIES LTD., priority 2019, dated 2026):

What was measured:
Pyricularia oryzae = experiment: microbe, parasite or virus in culture; type: cell-based; details: 168 h, read-out: control compared to the untreated check (radial growth)
Rhizoctonia solani = Rhizoctonia solani (rice sheath blight/potato black scurf) in vitro test, radial growth on potato dextrose agar; type: cell-based; details: 168 h, 300 ppm in potato dextrose agar, 25° C., 60% relative humidity, seven days, read-out: control compared to the untreated check (radial growth)
Botrytis cinerea = Botrytis cinerea (gray mold) in vitro test, radial growth on potato dextrose agar; type: cell-based; details: 168 h, 300 ppm in potato dextrose agar, 22° C., 90% relative humidity, seven days, read-out: control compared to the untreated check (radial growth)
Alternaria solani = Alternaria solani (early blight of tomato/potato) in vitro test, radial growth on potato dextrose agar; type: cell-based; details: 168 h, 300 ppm in potato dextrose agar, 25° C., 60% relative humidity, seven days, read-out: control compared to the untreated check (radial growth)
Colletotrichum capsici = Colletotrichum capsici (anthracnose) in vitro test, radial growth on potato dextrose agar; type: cell-based; details: Colletotrichum truncatum, 168 h; 300 ppm in potato dextrose agar; 25° C., 60% relative humidity, seven days; read-out: control compared to the untreated check (radial growth)
[1] = system: Septoria lycopersici/Corynespora cassicola (CORYCA); experiment: Septoria lycopersici/Corynespora cassicola (CORYCA) (leaf spot of tomato) in vitro test, radial growth on potato dextrose agar; type: cell-based; details: 168 h, 300 ppm in potato dextrose agar, 25° C., 70% relative humidity, seven days, read-out: control compared to the untreated check (radial growth)
Phakopsora pachyrhizi = Phakopsora pachyrhizi test in soybean, preventive, in vivo on plants; details: in Glycine max, read-out: Efficacy (% control), disease severity compared to the untreated check
Fusarium culmorum = Fusarium culmorum (foot rot of cereals) in vitro test, radial growth on potato dextrose agar; type: cell-based; details: 168 h, 300 ppm in potato dextrose agar, 25° C., 60% relative humidity, seven days, read-out: control compared to the untreated check (radial growth)
Method: Compounds were dissolved in 0.3% dimethyl sulfoxide and then added to potato dextrose agar medium just prior to dispensing it into petri dishes. 5 mL medium with the compound in the desired concentration was dispensed into 60 mm sterile petri-plates. After solidification each plate was seeded with a 5 mm size mycelial disc taken from the periphery of an actively growing virulent culture plate. Plates were incubated in growth chambers at 25° C. temperature and 60% relative humidity for seven days and then the radial growth was measured and compared to that of the untreated control.

CCN(C)C=Nc1cc(F)cc(N(C)c2cccc(C)c2)c1C [Compound 38, N-ethyl-N′-(5-fluoro-2-methyl-3-(methyl(m-tolyl)amino)phenyl)-N-methylformimidamide]
≥ 70%: inhibition of growth at 300 ppm (Pyricularia oryzae) | inhibition of growth at 300 ppm (Rhizoctonia solani) | inhibition of growth at 300 ppm (Botrytis cinerea) | inhibition of growth at 300 ppm (Alternaria solani) | inhibition of growth at 300 ppm (Colletotrichum capsici) | inhibition of growth at 300 ppm [1] | pest or weed control at 500 ppm (Phakopsora pachyrhizi)

CCN(C)C=Nc1cc(Cl)cc(Cc2ccccc2)c1C [Compound 79, N′-(3-benzyl-5-chloro-2-methylphenyl)-N-ethyl-N-methylformimidamide]
≥ 70%: inhibition of growth at 300 ppm (Pyricularia oryzae) | inhibition of growth at 300 ppm (Rhizoctonia solani) | inhibition of growth at 300 ppm (Botrytis cinerea) | inhibition of growth at 300 ppm (Alternaria solani) | inhibition of growth at 300 ppm (Colletotrichum capsici) | inhibition of growth at 300 ppm [1] | pest or weed control at 500 ppm (Phakopsora pachyrhizi)

CCN(C)C=Nc1cc(C)cc(Nc2c(C)cccc2F)c1Cl [Compound 133, N′-(2-chloro-3-((2-fluoro-6-methylphenyl)amino)-5-methylphenyl)-N-ethyl-N-methylformimidamide]
≥ 70%: inhibition of growth at 300 ppm (Pyricularia oryzae) | inhibition of growth at 300 ppm (Rhizoctonia solani) | inhibition of growth at 300 ppm (Botrytis cinerea) | inhibition of growth at 300 ppm (Alternaria solani) | inhibition of growth at 300 ppm (Colletotrichum capsici) | inhibition of growth at 300 ppm [1] | pest or weed control at 500 ppm (Phakopsora pachyrhizi)

CCN(C)C=Nc1cc(C)cc(Cc2c(F)cccc2Cl)c1Cl [Compound 92, N′-(2-chloro-3-(2-chloro-6-fluorobenzyl)-5-methylphenyl)-N-ethyl-N-methylformimidamide]
≥ 70%: inhibition of growth at 300 ppm (Pyricularia oryzae) | inhibition of growth at 300 ppm (Rhizoctonia solani) | inhibition of growth at 300 ppm (Botrytis cinerea) | inhibition of growth at 300 ppm (Alternaria solani) | inhibition of growth at 300 ppm (Colletotrichum capsici) | inhibition of growth at 300 ppm [1] | pest or weed control at 500 ppm (Phakopsora pachyrhizi)

CCN(C)C=Nc1cc(Cl)cc(Cc2ccccc2Cl)c1C [Compound 89, N′-(5-chloro-3-(2-chlorobenzyl)-2-methylphenyl)-N-ethyl-N-methylformimidamide]
≥ 70%: inhibition of growth at 300 ppm (Pyricularia oryzae) | inhibition of growth at 300 ppm (Rhizoctonia solani) | inhibition of growth at 300 ppm (Botrytis cinerea) | inhibition of growth at 300 ppm (Alternaria solani) | inhibition of growth at 300 ppm (Colletotrichum capsici) | inhibition of growth at 300 ppm [1] | pest or weed control at 500 ppm (Phakopsora pachyrhizi)

CCN(C)C=Nc1cc(F)cc(Nc2cccc(C)c2)c1C [Compound 31, N-ethyl-N′-(5-fluoro-2-methyl-3-(m-tolylamino)phenyl)-N-methylformimidamide]
≥ 70%: inhibition of growth at 300 ppm (Pyricularia oryzae) | inhibition of growth at 300 ppm (Rhizoctonia solani) | inhibition of growth at 300 ppm (Botrytis cinerea) | inhibition of growth at 300 ppm (Alternaria solani) | inhibition of growth at 300 ppm (Colletotrichum capsici) | inhibition of growth at 300 ppm [1] | pest or weed control at 500 ppm (Phakopsora pachyrhizi)

CCN(C)C=Nc1cc(C)cc(Nc2cccc(C(C)C)c2)c1Cl [Compound 58, N′-(2-chloro-3-((3-isopropylphenyl)amino)-5-methylphenyl)-N-ethyl-N-methylformimidamide]
≥ 70%: inhibition of growth at 300 ppm (Pyricularia oryzae) | inhibition of growth at 300 ppm (Rhizoctonia solani) | inhibition of growth at 300 ppm (Botrytis cinerea) | inhibition of growth at 300 ppm (Alternaria solani) | inhibition of growth at 300 ppm (Colletotrichum capsici) | inhibition of growth at 300 ppm [1] | pest or weed control at 500 ppm (Phakopsora pachyrhizi)

CCN(C)C=Nc1cc(F)cc(Cc2cccc(C(F)(F)F)c2)c1C [Compound 201, N-ethyl-N′-(5-fluoro-2-methyl-3-(3-(trifluoromethyl)benzyl)phenyl)-N-methylformimidamide]
≥ 70%: inhibition of growth at 300 ppm (Pyricularia oryzae) | inhibition of growth at 300 ppm (Rhizoctonia solani) | inhibition of growth at 300 ppm (Botrytis cinerea) | inhibition of growth at 300 ppm (Alternaria solani) | inhibition of growth at 300 ppm (Colletotrichum capsici) | inhibition of growth at 300 ppm [1] | pest or weed control at 500 ppm (Phakopsora pachyrhizi)

CCN(C)C=Nc1cc(Cl)cc(Cc2cc(C)c(F)c(C)c2)c1C [Compound 87, N′-(5-chloro-3-(4-fluoro-3,5-dimethylbenzyl)-2-methylphenyl)-N-ethyl-N-methylformimidamide]
≥ 70%: inhibition of growth at 300 ppm (Pyricularia oryzae) | inhibition of growth at 300 ppm (Rhizoctonia solani) | inhibition of growth at 300 ppm (Botrytis cinerea) | inhibition of growth at 300 ppm (Alternaria solani) | inhibition of growth at 300 ppm (Fusarium culmorum) | pest or weed control at 500 ppm (Phakopsora pachyrhizi)

CCN(C)C=Nc1cc(OC)cc(N(C)c2ccc(OC)c(F)c2)c1C [Compound 271, N-ethyl-N′-(3-((3-fluoro-4-methoxyphenyl)(methyl)amino)-5-methoxy-2-methylphenyl)-N-methylformimidamide]
≥ 70%: inhibition of growth at 300 ppm (Pyricularia oryzae) | inhibition of growth at 300 ppm (Alternaria solani) | inhibition of growth at 300 ppm [1] | inhibition of growth at 300 ppm (Fusarium culmorum)

CCN(C)C=Nc1cc(F)cc(Nc2cc(Cl)cc(C(F)(F)F)c2)c1C [Compound 161, N′-(3-((3-chloro-5-(trifluoromethyl)phenyl)amino)-5-fluoro-2-methylphenyl)-N-ethyl-N-methylformimidamide]
≥ 70%: inhibition of growth at 300 ppm (Pyricularia oryzae) | inhibition of growth at 300 ppm (Rhizoctonia solani) | inhibition of growth at 300 ppm (Botrytis cinerea) | inhibition of growth at 300 ppm (Alternaria solani) | inhibition of growth at 300 ppm (Colletotrichum capsici) | inhibition of growth at 300 ppm [1] | pest or weed control at 500 ppm (Phakopsora pachyrhizi)

CCN(C)C=Nc1cc(C)cc(Cc2c(F)cccc2F)c1Cl [Compound 91, N′-(2-chloro-3-(2,6-difluorobenzyl)-5-methylphenyl)-N-ethyl-N-methylformimidamide]
≥ 70%: inhibition of growth at 300 ppm (Pyricularia oryzae) | inhibition of growth at 300 ppm (Rhizoctonia solani) | inhibition of growth at 300 ppm (Botrytis cinerea) | inhibition of growth at 300 ppm (Alternaria solani) | inhibition of growth at 300 ppm (Colletotrichum capsici) | inhibition of growth at 300 ppm [1] | pest or weed control at 500 ppm (Phakopsora pachyrhizi)

CCN(C)C=Nc1cc(F)cc(Cc2ccccc2C(F)(F)F)c1C [Compound 143, N-ethyl-N′-(5-fluoro-2-methyl-3-(2-(trifluoromethyl)benzyl)phenyl)-N-methylformimidamide]
≥ 70%: inhibition of growth at 300 ppm (Pyricularia oryzae) | inhibition of growth at 300 ppm (Rhizoctonia solani) | inhibition of growth at 300 ppm (Botrytis cinerea) | inhibition of growth at 300 ppm (Alternaria solani) | inhibition of growth at 300 ppm (Colletotrichum capsici) | inhibition of growth at 300 ppm [1] | pest or weed control at 500 ppm (Phakopsora pachyrhizi)

CCN(C)C=Nc1cc(C)cc(Nc2ccc(F)cc2)c1Cl [Compound 60, N′-(2-chloro-3-((4-fluorophenyl)amino)-5-methylphenyl)-N-ethyl-N-methylformimidamide]
≥ 70%: inhibition of growth at 300 ppm (Pyricularia oryzae) | inhibition of growth at 300 ppm (Rhizoctonia solani) | inhibition of growth at 300 ppm (Botrytis cinerea) | inhibition of growth at 300 ppm (Alternaria solani) | inhibition of growth at 300 ppm (Colletotrichum capsici) | inhibition of growth at 300 ppm [1] | pest or weed control at 500 ppm (Phakopsora pachyrhizi)

CCN(C)C=Nc1cc(C)cc(Cc2ccccc2F)c1Cl [Compound 14, N′-(2-chloro-3-(2-fluorobenzyl)-5-methylphenyl)-N-ethyl-N-methylformimidamide]
≥ 70%: inhibition of growth at 300 ppm (Pyricularia oryzae) | inhibition of growth at 300 ppm (Rhizoctonia solani) | inhibition of growth at 300 ppm (Botrytis cinerea) | inhibition of growth at 300 ppm (Alternaria solani) | inhibition of growth at 300 ppm (Colletotrichum capsici) | inhibition of growth at 300 ppm [1] | pest or weed control at 500 ppm (Phakopsora pachyrhizi)

CCN(C)C=Nc1cc(C)cc(Cc2ccc(F)c(F)c2)c1Cl [Compound 67, N′-(2-chloro-3-(3,4-difluorobenzyl)-5-methylphenyl)-N-ethyl-N-methylformimidamide]
≥ 70%: inhibition of growth at 300 ppm (Pyricularia oryzae) | inhibition of growth at 300 ppm (Rhizoctonia solani) | inhibition of growth at 300 ppm (Botrytis cinerea) | inhibition of growth at 300 ppm (Alternaria solani) | inhibition of growth at 300 ppm (Colletotrichum capsici) | inhibition of growth at 300 ppm [1] | pest or weed control at 500 ppm (Phakopsora pachyrhizi)

CCN(C)C=Nc1cc(F)cc(Nc2ccc(SC(F)(F)F)cc2)c1C [Compound 16, N-ethyl-N′-(5-fluoro-2-methyl-3-((4-((trifluoromethyl)thio)phenyl)amino)phenyl)-N-methylformimidamide]
≥ 70%: inhibition of growth at 300 ppm (Pyricularia oryzae) | inhibition of growth at 300 ppm (Rhizoctonia solani) | inhibition of growth at 300 ppm (Botrytis cinerea) | inhibition of growth at 300 ppm (Alternaria solani) | inhibition of growth at 300 ppm (Colletotrichum capsici) | inhibition of growth at 300 ppm [1] | pest or weed control at 500 ppm (Phakopsora pachyrhizi)

CCN(C)C=Nc1cc(C)cc(Cc2ccc(Br)cc2F)c1Cl [Compound 217, N′-(3-(4-bromo-2-fluorobenzyl)-2-chloro-5-methylphenyl)-N-ethyl-N-methylformimidamide]
≥ 70%: inhibition of growth at 300 ppm (Pyricularia oryzae) | inhibition of growth at 300 ppm (Rhizoctonia solani) | inhibition of growth at 300 ppm (Botrytis cinerea) | inhibition of growth at 300 ppm (Alternaria solani) | inhibition of growth at 300 ppm (Colletotrichum capsici) | inhibition of growth at 300 ppm [1] | pest or weed control at 500 ppm (Phakopsora pachyrhizi)

CCN(C)C=Nc1cc(Cl)cc(Cc2ccc(F)c(C)c2)c1C [Compound 128, N′-(5-chloro-3-(4-fluoro-3-methylbenzyl)-2-methylphenyl)-N-ethyl-N-methylformimidamide]
≥ 70%: inhibition of growth at 300 ppm (Pyricularia oryzae) | inhibition of growth at 300 ppm (Rhizoctonia solani) | inhibition of growth at 300 ppm (Botrytis cinerea) | inhibition of growth at 300 ppm (Alternaria solani) | inhibition of growth at 300 ppm (Colletotrichum capsici) | inhibition of growth at 300 ppm [1] | pest or weed control at 500 ppm (Phakopsora pachyrhizi)
